From patent US20220144847A1, “HETEROCYCLIC COMPOUND, PHARMACEUTICAL COMPOSITION COMPRISING SAME, PREPARATION METHOD THEREFOR, AND USE THEREOF” (Sichuan Kelun-Biotech Biopharmaceutical Co., Ltd., priority 2019, published 2022) come the findings set out here.

In assay [1] the target is RET-V804M (Homo sapiens, UniProt P07949, V804M). As to the kind of experiment: RET inhibition experiment (HTRF KinEASE-TK kit), mutant RET-V804M. The format is biochemical. The following applies: for inhibition at 0.01 µM / inhibition at 0.1 µM: read-out: Inhibition rate on RET-V804M; for IC50: read-out: The IC50 (nM) for inhibiting V804M; for inhibition at 0.1 µM: 100 nM (Table 2). Here is the method: Experimental method: According to the instructions of the HTRF KinEASE-TK kit (Cisbio), the compounds of the present disclosure were tested for their inhibitory effects on the activity of wild-type RET enzyme, mutant RET enzyme (RET-V804M, RET-V804L, and RET-M918T) and fusion-type RET enzyme (RET-CCDCl6). After pre-incubation of different RET enzymes and different concentrations of the test compounds at room temperature for 30 min, a substrate and adenosine triphosphate (ATP) were added to initiate the reaction. After incubation at room temperature for 40 min, TK antibody-cryptate and streptavidin-XL665 were added, and the test was performed after incubation at room temperature for 45 min. With the solvent group (DMSO) as the negative control and the buffer group (without RET enzyme) as the blank control, the relative inhibitory activity percentages (i.e., inhibition rates) of different concentrations of the compounds were computed as per the following formula:
(§1) Relative inhibitory activity percentage=1−(compound group of different concentrations−blank control)/(negative control−blank control)*100%
(§2) The relative inhibitory activity percentages of different concentrations of the compounds were plotted with respect to the compound concentrations, and the curve was fitted according to a four-parameter model to compute the IC50 value as per the following formula:
(§3) y=min+(max−min)/(1+(x/IC50)^(−Hillslope))
(§4) where y is the relative inhibitory activity percentage, max is the maximum value of the fitted curve, min is the minimum value of the fitted curve, x is the logarithmic concentration of the compound, and Hillslope is the slope of the curve.
Background: In TR-FRET formats the signal depends on donor and acceptor labels being close together.

Assay [2] concerns the target VEGFR2 (Homo sapiens, UniProt P35968). As to the kind of experiment: VEGFR2 inhibition experiment (HTRF KinEASE-TK kit). The format is biochemical. Conditions: read-out: Inhibition rate on VEGFR2; for inhibition at 0.03 µM: 30 nM; for inhibition at 0.3 µM: 300 nM. Here is the method:
Experimental method: According to the instructions of the HTRF KinEASE-TK kit (Cisbio), the compounds of the present disclosure were tested for their inhibitory effects on the VEGFR2 enzyme activity. After pre-incubation of the VEGFR2 enzyme and different concentrations of test compounds at room temperature for 30 min, a substrate and adenosine triphosphate (ATP) were added to initiate the reaction. After incubation at room temperature for 40 min, TK antibody-cryptate and streptavidin-XL665 were added, and the test was performed after incubation at room temperature for 45 min. With the solvent group (DMSO) as the negative control and the buffer group (without VEGFR2 enzyme) as the blank control, the relative inhibitory activity percentages (i.e., inhibition rates) of different concentrations of the compounds were computed as per the following formula:
as §1, §2, §3, §4

Where two headings read alike, the source gives them in different places.

Chain of RET-V804M (P07949 29-1114 V804M): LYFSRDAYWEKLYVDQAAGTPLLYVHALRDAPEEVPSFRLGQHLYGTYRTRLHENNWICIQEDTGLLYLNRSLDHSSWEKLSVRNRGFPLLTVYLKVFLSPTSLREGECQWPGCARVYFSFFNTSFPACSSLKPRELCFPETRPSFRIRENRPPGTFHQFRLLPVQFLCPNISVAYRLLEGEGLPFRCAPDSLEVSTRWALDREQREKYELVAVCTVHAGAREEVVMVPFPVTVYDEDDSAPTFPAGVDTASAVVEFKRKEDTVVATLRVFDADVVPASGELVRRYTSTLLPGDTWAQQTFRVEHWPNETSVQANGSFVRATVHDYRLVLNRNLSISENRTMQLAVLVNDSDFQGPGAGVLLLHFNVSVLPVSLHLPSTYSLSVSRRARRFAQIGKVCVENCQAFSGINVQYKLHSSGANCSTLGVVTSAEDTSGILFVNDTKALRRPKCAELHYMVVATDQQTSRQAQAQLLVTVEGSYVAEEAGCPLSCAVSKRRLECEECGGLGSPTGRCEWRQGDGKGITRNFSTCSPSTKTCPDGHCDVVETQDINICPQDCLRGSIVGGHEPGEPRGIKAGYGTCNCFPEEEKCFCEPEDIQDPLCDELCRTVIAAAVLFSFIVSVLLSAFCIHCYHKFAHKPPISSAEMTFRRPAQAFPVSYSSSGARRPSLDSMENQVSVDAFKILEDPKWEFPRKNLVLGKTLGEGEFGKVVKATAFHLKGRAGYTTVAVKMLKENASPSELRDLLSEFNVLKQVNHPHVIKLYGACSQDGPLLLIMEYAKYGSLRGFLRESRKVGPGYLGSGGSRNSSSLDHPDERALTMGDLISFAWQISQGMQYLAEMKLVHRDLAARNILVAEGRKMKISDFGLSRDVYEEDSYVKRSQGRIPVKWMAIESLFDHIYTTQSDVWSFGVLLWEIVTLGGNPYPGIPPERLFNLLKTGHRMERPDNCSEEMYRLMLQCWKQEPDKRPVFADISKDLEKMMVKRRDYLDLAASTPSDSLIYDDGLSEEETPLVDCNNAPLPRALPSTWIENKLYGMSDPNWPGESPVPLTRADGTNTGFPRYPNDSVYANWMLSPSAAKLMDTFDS
Chain of VEGFR2 (P35968 20-1356, species assumed): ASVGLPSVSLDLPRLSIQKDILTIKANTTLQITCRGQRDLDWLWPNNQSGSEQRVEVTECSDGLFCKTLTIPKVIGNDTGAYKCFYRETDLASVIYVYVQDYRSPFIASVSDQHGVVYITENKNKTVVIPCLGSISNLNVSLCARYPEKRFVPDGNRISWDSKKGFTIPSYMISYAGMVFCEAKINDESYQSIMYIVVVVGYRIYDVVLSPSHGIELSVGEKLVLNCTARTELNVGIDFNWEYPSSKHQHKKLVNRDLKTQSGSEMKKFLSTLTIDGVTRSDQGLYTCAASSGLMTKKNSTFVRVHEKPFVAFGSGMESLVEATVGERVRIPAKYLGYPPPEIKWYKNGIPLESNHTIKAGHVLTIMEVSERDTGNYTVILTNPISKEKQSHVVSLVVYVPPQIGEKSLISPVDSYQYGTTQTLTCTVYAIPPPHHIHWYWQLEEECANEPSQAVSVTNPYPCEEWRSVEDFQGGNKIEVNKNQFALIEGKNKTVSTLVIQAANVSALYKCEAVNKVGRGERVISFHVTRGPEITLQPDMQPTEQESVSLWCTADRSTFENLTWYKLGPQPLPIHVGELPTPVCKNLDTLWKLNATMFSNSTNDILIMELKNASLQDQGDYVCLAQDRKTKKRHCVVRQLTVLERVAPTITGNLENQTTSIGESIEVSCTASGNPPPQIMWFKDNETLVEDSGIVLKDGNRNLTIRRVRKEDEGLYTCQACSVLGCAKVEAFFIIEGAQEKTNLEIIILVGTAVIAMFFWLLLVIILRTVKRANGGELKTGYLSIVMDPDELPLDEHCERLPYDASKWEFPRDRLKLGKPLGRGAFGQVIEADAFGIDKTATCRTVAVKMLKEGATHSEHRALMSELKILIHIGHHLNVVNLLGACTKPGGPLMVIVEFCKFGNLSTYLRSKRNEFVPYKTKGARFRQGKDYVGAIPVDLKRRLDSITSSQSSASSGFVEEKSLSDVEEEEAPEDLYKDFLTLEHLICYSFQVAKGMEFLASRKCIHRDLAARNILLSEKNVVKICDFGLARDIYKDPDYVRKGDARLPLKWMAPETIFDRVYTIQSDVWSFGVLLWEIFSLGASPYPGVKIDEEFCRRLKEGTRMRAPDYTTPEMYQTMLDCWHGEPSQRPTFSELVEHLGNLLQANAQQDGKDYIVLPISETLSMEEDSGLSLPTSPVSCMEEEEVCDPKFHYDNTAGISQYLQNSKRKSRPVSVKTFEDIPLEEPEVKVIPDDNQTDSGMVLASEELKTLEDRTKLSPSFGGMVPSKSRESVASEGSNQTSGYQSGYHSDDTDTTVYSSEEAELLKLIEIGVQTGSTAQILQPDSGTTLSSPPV

In general, inhibition refers to the drop in the measured response relative to a control, in per cent. Turning to `Cc1cc(Nc2cc(C)[nH]n2)nc(-c2ccc(N3CC4CC(C3)N4Cc3ccc(-c4ccc(F)[nH]4)nc3)nc2)n1` [Compound 131, 2-(6-(6-((6-(5-fluoro-1H-pyrrol-2-yl)pyridin-3-yl)methyl)-3,6-diazabicyclo[3.1.1]heptan-3-yl)pyridin-3-yl)-6-methyl-N-(5-methyl-1H-pyrazol-3-yl)pyrimidin-4-amine], in assay [1] (10 nM (Table 2)), the inhibition at 0.01 µM amounted to 72%. For the same molecule, in assay [2], the inhibition at 0.03 µM was 50%.

In general, IC50 refers to the midpoint of a concentration-inhibition curve. On to `Cc1cc(Nc2cc(C)[nH]n2)nc(-c2ccc(N3CC4CC(C3)N4Cc3ccc(F)cn3)nc2)n1` [Compound 70, 2-(6-(6-((5-fluoropyridin-2-yl)methyl)-3,6-diazabicyclo[3.1.1]heptan-3-yl)pyridin-3-yl)-6-methyl-N-(5-methyl-1H-pyrazol-3-yl)pyrimidin-4-amine], for which the IC50 in assay [1] amounted to 41.4 ± 3.73 nM. Moreover, the inhibition at 0.1 µM in assay [2] (100 nM) worked out at 14%.

Take `Cc1cc(Nc2cc(C)[nH]n2)nc(-c2ccc(N3CC4CC(C3)N4Cc3ccc(-n4cc(C)c(C)n4)nc3)nc2)n1` [Compound 121, 2-(6-(6-((6-(3,4-dimethyl-1H-pyrazol-1-yl)pyridin-3-yl)methyl)-3,6-diazabicyclo[3.1.1]heptan-3-yl)pyridin-3-yl)-6-methyl-N-(5-methyl-1H-pyrazol-3-yl)pyrimidin-4-amine]: the concentration for half-maximal inhibition (IC50) in assay [1] turned out to be 6.22 ± 1.39 nM. Moreover, the inhibition at 0.1 µM in assay [2] (100 nM) is 37%.

As to `Cc1cc(Nc2cc(C)[nH]n2)nc(-c2ccc(N3CC4CC(C3)N4Cc3ccc(-n4ccc(F)n4)cc3)nc2)n1` [Compound 89, 2-(6-(6-(4-(3-fluoro-1H-pyrazol-1-yl)benzyl)-3,6-diazabicyclo[3.1.1]heptan-3-yl)pyridin-3-yl)-6-methyl-N-(5-methyl-1H-pyrazol-3-yl)pyrimidin-4-amine], the inhibition at 0.01 µM in assay [1] (10 nM (Table 2)) came to 70%. Further, in assay [2] (100 nM), the inhibition at 0.1 µM is 16%.

Regarding `Cc1cc(Nc2cc(C)[nH]n2)nc(-c2ccc(N3CC4CC(C3)N4Cc3ccc(-c4cccn4C)nc3)nc2)n1` [Compound 128, 6-methyl-N-(5-methyl-1H-pyrazol-3-yl)-2-(6-(6-((6-(1-methyl-1H-pyrrol-2-yl)pyridin-3-yl)methyl)-3,6-diazabicyclo[3.1.1]heptan-3-yl)pyridin-3-yl)pyrimidin-4-amine], the inhibition at 0.01 µM in assay [1] (10 nM (Table 2)) turned out to be 48%. In addition, the inhibition at 0.1 µM in assay [2] (100 nM) was determined as 20%.

On to `Cc1ccc(CN2C3CC2CN(c2ccc(-c4nc(C)cc(Nc5cc(C)[nH]n5)n4)cn2)C3)cc1` [Compound 80, 6-methyl-N-(5-methyl-1H-pyrazol-3-yl)-2-(6-(6-(4-methylbenzyl)-3,6-diazabicyclo[3.1.1]heptan-3-yl)pyridin-3-yl)pyrimidin-4-amine], for which the inhibition at 0.01 µM in assay [1] came out at 51%. Also, the inhibition at 0.1 µM in assay [2] is -10%.

For `Cc1cc(Nc2cc(C)[nH]n2)nc(-c2ccc(N3CCC(Oc4cncc(F)c4)CC3)nc2)n1` [Compound 29, 2-(6-(4-((5-fluoropyridin-3-yl)oxy)piperidin-1-yl)pyridin-3-yl)-6-methyl-N-(5-methyl-1H-pyrazol-3-yl)pyrimidin-4-amine], the inhibition at 0.01 µM in assay [1] (10 nM (Table 2)) worked out at 52%. Also, the inhibition at 0.3 µM in assay [2] was 47%.

For the molecule `Cc1cc(Nc2cc(C)[nH]n2)nc(-c2ccc(N3C[C@H]4C[C@@H](C3)N4C(C)c3ccc(-n4cc(F)cn4)nc3)nc2)n1` (single isomer, unassigned) [Compound 52-2], the IC50 in assay [1] amounted to 13 ± 2.34 nM. The inhibition at 0.3 µM in assay [2] was 12%.

In the case of `Cc1cc(Nc2cc(C)[nH]n2)nc(-c2ccc(N3CC4CC(C3)N4Cc3ccc(-n4nccc4C(C)C)nc3)nc2)n1` [Compound 12, 2-(6-(6-((6-(5-isopropyl-1H-pyrazol-1-yl)pyridin-3-yl)methyl)-3,6-diazabicyclo[3.1.1]heptan-3-yl)pyridin-3-yl)-6-methyl-N-(5-methyl-1H-pyrazol-3-yl)pyrimidin-4-amine], the IC50 in assay [1] is 6.94 ± 0.78 nM. Besides, in assay [2], the inhibition at 0.3 µM worked out at 62%.

In the case of `Cc1cc(Nc2cc(C)[nH]n2)nc(-c2ccc(N3CC4CC(C3)N4C(=O)c3ccc(-n4cc(F)cn4)nc3)nc2)n1` [Compound 26, (6-(4-fluoro-1H-pyrazol-1-yl)pyridin-3-yl)(3-(5-(4-methyl-6-((5-methyl-1H-pyrazol-3-yl)-amino)pyrimidin-2-yl)pyridin-2-yl)-3,6-diazabicyclo[3.1.1]heptan-6-yl)methanone], the inhibition at 0.01 µM in assay [1] (10 nM (Table 2)) is 83%. The inhibition at 0.3 µM in assay [2] is 64%.

As to `Cc1cc(Nc2cc(C)[nH]n2)nc(-c2ccc(N3CC4CC(C3)N4Cc3ccc(-n4ccc(F)n4)nc3)nc2)n1` [Compound 63, 2-(6-(6-((6-(3-fluoro-1H-pyrazol-1-yl)pyridin-3-yl)methyl)-3,6-diazabicyclo[3.1.1]heptan-3-yl)pyridin-3-yl)-6-methyl-N-(5-methyl-1H-pyrazol-3-yl)pyrimidin-4-amine], the inhibition at 0.01 µM in assay [1] (10 nM (Table 2)) is 65%. In assay [2] (100 nM), the inhibition at 0.1 µM came to 38%.

Regarding `Cc1cc(Nc2cc(C)[nH]n2)nc(-c2ccc(N3CC4CC(C3)N4Cc3ccc(-c4cscn4)nc3)nc2)n1` [Compound 129, 6-methyl-N-(5-methyl-1H-pyrazol-3-yl)-2-(6-(6-((6-(thiazol-4-yl)pyridin-3-yl)methyl)-3,6-diazabicyclo[3.1.1]heptan-3-yl)pyridin-3-yl)pyrimidin-4-amine], in assay [1] (10 nM (Table 2)), the inhibition at 0.01 µM turned out to be 84%. Moreover, in assay [2], the inhibition at 0.03 µM stood at 52%.

With `COc1ccc(F)c(CN2C3CC2CN(c2ccc(-c4nc(C)cc(Nc5cc(C)[nH]n5)n4)cn2)C3)c1` [Compound 96, 2-(6-(6-(2-fluoro-5-methoxybenzyl)-3,6-diazabicyclo[3.1.1]heptan-3-yl)pyridin-3-yl)-6-methyl-N-(5-methyl-1H-pyrazol-3-yl)pyrimidin-4-amine], the inhibition at 0.1 µM in assay [1] was 84%; in assay [2] (100 nM), 4%.

With `Cc1cc(Nc2cc(C)[nH]n2)nc(-c2ccc(N3CC4CC(C3)N4Cc3cnc(C)s3)nc2)n1` [Compound 15, 6-methyl-N-(5-methyl-1H-pyrazol-3-yl)-2-(6-(6-((2-methylthiazol-5-yl)methyl)-3,6-diazabicyclo[3.1.1]heptan-3-yl)pyridin-3-yl)pyrimidin-4-amine], the inhibition at 0.1 µM in assay [1] was determined as 91%; in assay [2] (100 nM), 29%.

For `COc1ccc(-c2ccc(CN3C4CC3CN(c3ccc(-c5nc(C)cc(Nc6cc(C)[nH]n6)n5)cn3)C4)cn2)cn1` [Compound 7, 2-(6-(6-((6′-methoxy-[2,3′-dipyridyl]-5-yl)methyl)-3,6-diazabicyclo[3.1.1]heptan-3-yl)pyridin-3-yl)-6-methyl-N-(5-methyl-1H-pyrazol-3-yl)pyrimidin-4-amine], in assay [1] (10 nM (Table 2)), the inhibition at 0.01 µM was 46%. Besides, in assay [2] (100 nM), the inhibition at 0.1 µM was 16%.

For the molecule `Cc1cnn(-c2ccc(CN3C4CC3CN(c3ccc(-c5nc(C)cc(Nc6cc(C)[nH]n6)n5)cn3)C4)cn2)c1` [Compound 62, 6-methyl-2-(6-(6-((6-(4-methyl-1H-pyrazol-1-yl)pyridin-3-yl)methyl)-3,6-diazabicyclo[3.1.1]heptan-3-yl)pyridin-3-yl)-N-(5-methyl-1H-pyrazol-3-yl)pyrimidin-4-amine], the half-maximal inhibitory concentration (IC50) in assay [1] is 4.53 ± 1.23 nM. Also, the inhibition at 0.1 µM in assay [2] (100 nM) amounted to 62%.

With `CCOc1ccc(CN2C3CC2CN(c2ccc(-c4nc(C)cc(Nc5cc(C)[nH]n5)n4)cn2)C3)cc1` [Compound 41, 2-(6-(6-(4-ethoxybenzyl)-3,6-diazabicyclo[3.1.1]heptan-3-yl)pyridin-3-yl)-6-methyl-N-(5-methyl-1H-pyrazol-3-yl)pyrimidin-4-amine], in assay [1] (10 nM (Table 2)), the inhibition at 0.01 µM was 64%. The inhibition at 0.1 µM in assay [2] (100 nM) is 22%.

As for `Cc1cc(Nc2cc(C)[nH]n2)nc(-c2ccc(N3CC4CC(C3)N4Cc3ccc(-c4ccn[nH]4)nc3)nc2)n1` [Compound 132, 2-(6-(6-((6-(1H-pyrazol-5-yl)pyridin-3-yl)methyl)-3,6-diazabicyclo[3.1.1]heptan-3-yl)pyridin-3-yl)-6-methyl-N-(5-methyl-1H-pyrazol-3-yl)pyrimidin-4-amine], the inhibition at 0.01 µM in assay [1] (10 nM (Table 2)) is 84%. The inhibition at 0.03 µM in assay [2] stood at 31%.

Regarding `Cc1cc(Nc2cc(C)[nH]n2)nc(-c2ccc(N3CC4CC(C3)N4Cc3ccc(-n4ccc(CF)n4)nc3)nc2)n1` [Compound 31, 2-(6-(6-((6-(3-(fluoromethyl)-1H-pyrazol-1-yl)pyridin-3-yl)methyl)-3,6-diazabicyclo[3.1.1]heptan-3-yl)pyridin-3-yl)-6-methyl-N-(5-methyl-1H-pyrazol-3-yl)pyrimidin-4-amine], the inhibition at 0.01 µM in assay [1] (10 nM (Table 2)) came out at 81%. Also, in assay [2], the inhibition at 0.03 µM amounted to 17%.
